# According to paper PMC11213934, “Allosteric modulators of M1 muscarinic receptors enhance acetylcholine efficacy and decrease locomotor activity and turning behaviors in zebrafish” (Scientific Reports, 2024):
# Entries after “also recorded” stand apart in the source; their conditions may differ. Marks after values point to notes of the source that are not given here.
# Legend:
# [1] = molecular target: T1, human M1 muscarinic receptors (Homo sapiens, UniProt P11229); test: [3H]AA release ACh dose-response families fitted to an allosteric operational model; settings: Em set to 2.0
# T1 sequence (P11229 1-460): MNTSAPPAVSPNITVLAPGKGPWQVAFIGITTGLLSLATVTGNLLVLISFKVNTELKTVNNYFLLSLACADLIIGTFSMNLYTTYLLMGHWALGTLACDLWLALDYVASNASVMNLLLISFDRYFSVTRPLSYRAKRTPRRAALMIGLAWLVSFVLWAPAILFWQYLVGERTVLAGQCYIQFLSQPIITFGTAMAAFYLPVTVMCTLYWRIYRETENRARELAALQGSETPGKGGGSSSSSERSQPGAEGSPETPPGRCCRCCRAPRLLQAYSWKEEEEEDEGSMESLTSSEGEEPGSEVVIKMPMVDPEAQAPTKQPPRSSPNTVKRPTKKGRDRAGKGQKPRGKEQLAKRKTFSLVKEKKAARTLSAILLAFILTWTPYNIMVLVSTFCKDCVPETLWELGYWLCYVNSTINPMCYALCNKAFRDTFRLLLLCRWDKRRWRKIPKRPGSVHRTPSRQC
# Method: Stably transfected CHO-hM1 cells were seeded on 24-well plates (Greiner Bio-One GmbH, Frickenhausen, Germany) at a density of 5.0 × 10^4 cells/well in 0.5 ml of F-12 medium. Cells were incubated until they attached (approximately 3 h), followed by the addition of [^3H]AA to a final concentration of 0.05 μCi of [^3H]AA per well. The cells were then grown for 16 to 20 h before the assay was performed. [^3H]AA release was measured in Eagle’s basal medium with 20 mM HEPES and 2 mg/ml fatty acid-free bovine serum albumin (EM-BSA). Cells were rinsed twice with EM-BSA, followed by the addition of EM-BSA media containing experimental agents and incubated for 1 h at 37 °C. The assay was terminated by aspiration of the media, and the amount of [^3H]AA released was determined by liquid scintillation counting (Beckman-Coulter LS6500).
# Tabulated [^3H]AA release data are represented as a fraction of maximal release elicited by ACh or as the fraction of release elicited by the relevant concentration of ACh alone, as indicated. Dose-response curves were normalized to the maximal response of ACh without allosteric ligand. Where indicated, response curves were analyzed using the empirical four-parameter equation: Y=Top+Bottom-Top/1+X/C50^n where X is the concentration of the ligand used, Y is the amount of response, C50 is the concentration of the ligand that produces 50% of the maximal effect, Top and Bottom are the top and bottom plateaus of the curve, and n is related to the Hill slope for the curve. Where indicated, families of response curves were analyzed according to an allosteric operational model[50],[51]: Y=EM[τAA(KB+αβB)+τBBKA]/[τAA(KB+αβB)+τBBKA+AKB+KAKB+KAB+αAB] where EM is the maximal response; A is the concentration of ACh; B is the concentration of the allosteric ligand; τA and τB represent the operational efficacies of A and B, respectively; KA and KB are the equilibrium dissociation constants of A and B; and α and β represent the cooperativities between A and B in terms of binding and activation, respectively. Curve-fitting was carried out with GraphPad Prism, version 5.0 or 6.0 (San Diego CA).
# [2] = test system: wild-type (AB) zebrafish (Danio rerio); test: Maximum tolerated concentration (MTC) determination in larval zebrafish; assay type: in vivo
# [3] = test system: wild-type (AB) zebrafish (Danio rerio); assay type: in vivo; settings: compound at 10 µM relative to controls; mean ± s.e.m., N = 12
# [4] = test system: wild-type (AB) zebrafish (Danio rerio); test: animal or person; assay type: in vivo
# [5] = molecular target: T1, human M1 muscarinic receptors; test: [3H]-arachidonic acid release in CHO cells expressing M1 receptors, with and without ACh (single modulator concentration, four-parameter curves); assay type: cell-based; design: expressed in transfected cells; host or cells: CHO cells stably transfected with hM1, obtained from Mark Brann's laboratory (NIH)
# [6] = compound at 10 µM relative to controls, mean ± s.e.m., N = 12
structure (smiles),measurement,setting,value
"COc1c(I)cc(CN2C(=O)C(=O)c3ccccc32)cc1I [Compound 8a, 1-(3,5-diiodo-4-methoxybenzyl)indoline-2,3-dione]","Operational efficacy-B, τB",[1]; best-fit ± s.e.m.,0.17 ± 0.03
same,"Affinity-B, logKB","[1]; given as logKB (negative log value), allosteric site",−6.26 ± 0.15
same,MTC (maximum tolerated concentration),"[2]; after 24 h exposure, 5 dpf larvae",> 30 µM
same,Concentration up to which no signs of toxicity were produced,[2]; highest concentration tested,≥ 30 µM
same,Angular velocity,[3],197.1 ± 19.8 %
same,Therap. index,[4],> 100
same,"Effect on locomotor activity and turning behaviors, in words",[4]; 30 min spontaneous swimming period,reduced locomotor activity
same,Concentration with significant effects on locomotor behaviors,[4]; AB zebrafish,1 µM
same,Distance moved,[4]; [6],45.8 ± 6.4*** %
same,Variance turn angle,[4]; [6],161.1 ± 13.4*** %
same,MEC,[4]; locomotor behaviors,0.3 µM
same,0.1 µM ACh: response with modulator present divided by response to ACh alone,"[5]; modulator 10 µM, 0.1 µM ACh, CHO-hM1, mean ± s.e.m.",2.44 ± 0.21
same,100 µM ACh: response with modulator present divided by response to ACh alone,"[5]; modulator 10 µM, 100 µM ACh, CHO-hM1, mean ± s.e.m.",1.62 ± 0.06
same,"No ACh: agonist effect of the allosteric ligand by itself, fraction of the maximal response that could be elicited by ACh","[5]; modulator 10 µM, no ACh, CHO-hM1, mean ± s.e.m., at least 4 determinations",0.24 ± 0.04
same,"Effect on M1 receptor activity and ACh response, in words",[5]; modulators at 10 µM (amiodarone 30 µM),significant enhancement of ACh activity; also recorded: dramatically enhanced ACh efficacy
